Assay results published in ChEMBL document CHEMBL2434896, “Carbonic anhydrase inhibitors. Synthesis of heterocyclic 4-substituted pyridine-3-sulfonamide derivatives and their inhibition of the human cytosolic isozymes I and II and transmembrane tumor-associated isozymes IX and XII” (Eur J Med Chem, 2013).
Calls of active or inactive are those of the source.

Assays:
UO-31 = test: Growth inhibition of human UO31 cells at 10 uM after 48 hrs by sulforhodamine B assay; type: functional; settings: UO-31, 48 h, read-out: GI
NCI-H23 = test: Growth inhibition of human NCI-H23 cells at 10 uM after 48 hrs by sulforhodamine B assay; type: functional
ACHN = test: Growth inhibition of human ACHN cells at 10 uM after 48 hrs by sulforhodamine B assay; type: functional
Hs-578T = test: Growth inhibition of human Hs 578T cells at 10 uM after 48 hrs by sulforhodamine B assay; type: functional
BT-549 = test: Growth inhibition of human BT549 cells at 10 uM after 48 hrs by sulforhodamine B assay; type: functional
UACC-257 = test: Growth inhibition of human UACC257 cells at 10 uM after 48 hrs by sulforhodamine B assay; type: functional
Malme-3M = test: Growth inhibition of human MALME-3M cells at 10 uM after 48 hrs by sulforhodamine B assay; type: functional; settings: read-out: GI
HCC 2998 = test: Growth inhibition of human HCC2998 cells at 10 uM after 48 hrs by sulforhodamine B assay; type: functional
NCI/ADR-RES = test: Growth inhibition of human NCI-ADR-RES cells at 10 uM after 48 hrs by sulforhodamine B assay; type: functional
SNB-75 = test: Growth inhibition of human SNB75 cells at 10 uM after 48 hrs by sulforhodamine B assay; type: functional
SR = test: Growth inhibition of human SR cells at 10 uM after 48 hrs by sulforhodamine B assay; type: functional
RPMI-8226 = test: Growth inhibition of human RPMI8226 cells at 10 uM after 48 hrs by sulforhodamine B assay; type: functional; settings: RPMI-8226, 48 h, read-out: GI
DU-145 = test: Growth inhibition of human DU145 cells at 10 uM after 48 hrs by sulforhodamine B assay; type: functional
SNB-19 = test: Growth inhibition of human SNB19 cells at 10 uM after 48 hrs by sulforhodamine B assay; type: functional
LOX IMVI = test: Growth inhibition of human LOXIMVI cells at 10 uM after 48 hrs by sulforhodamine B assay; type: functional; settings: read-out: GI
PC-3 = test: Growth inhibition of human PC3 cells at 10 uM after 48 hrs by sulforhodamine B assay; type: functional; settings: PC-3, 48 h, read-out: GI
A549 = test: Growth inhibition of human A549/ATCC cells at 10 uM after 48 hrs by sulforhodamine B assay; type: functional; settings: A549, 48 h, read-out: GI
A498 = test: Growth inhibition of human A498 cells at 10 uM after 48 hrs by sulforhodamine B assay; type: functional
SF-295 = test: Growth inhibition of human SF295 cells at 10 uM after 48 hrs by sulforhodamine B assay; type: functional; settings: SF-295, 48 h, read-out: GI
NCI-H322M = test: Growth inhibition of human NCI-H322M cells at 10 uM after 48 hrs by sulforhodamine B assay; type: functional; settings: read-out: GI
SK-OV-3 = test: Growth inhibition of human SKOV3 cells at 10 uM after 48 hrs by sulforhodamine B assay; type: functional; settings: SK-OV-3, 48 h, read-out: GI
HCT-15 = test: Growth inhibition of human HCT15 cells at 10 uM after 48 hrs by sulforhodamine B assay; type: functional
KM12 = test: Growth inhibition of human KM12 cells at 10 uM after 48 hrs by sulforhodamine B assay; type: functional
CCRF-CEM = test: Growth inhibition of human CCRF-CEM cells at 10 uM after 48 hrs by sulforhodamine B assay; type: functional; settings: read-out: GI
T47D = test: Growth inhibition of human T47D cells at 10 uM after 48 hrs by sulforhodamine B assay; type: functional; settings: read-out: GI
OVCAR-5 = test: Growth inhibition of human OVCAR5 cells at 10 uM after 48 hrs by sulforhodamine B assay; type: functional; settings: OVCAR-5, 48 h, read-out: GI
TK-10 = test: Growth inhibition of human TK10 cells at 10 uM after 48 hrs by sulforhodamine B assay; type: functional; settings: TK-10, 48 h, read-out: GI
NCI-H522 = test: Growth inhibition of human NCI-H522 cells at 10 uM after 48 hrs by sulforhodamine B assay; type: functional
SF-539 = test: Growth inhibition of human SF539 cells at 10 uM after 48 hrs by sulforhodamine B assay; type: functional; settings: SF-539, 48 h, read-out: GI
IGROV-1 = test: Growth inhibition of human IGROV1 cells at 10 uM after 48 hrs by sulforhodamine B assay; type: functional; settings: IGROV-1, 48 h, read-out: GI
MDA-MB-231 = test: Growth inhibition of human MDA-MB-231 cells at 10 uM after 48 hrs by sulforhodamine B assay; type: functional
MOLT-4 = test: Growth inhibition of human MOLT4 cells at 10 uM after 48 hrs by sulforhodamine B assay; type: functional; settings: MOLT-4, 48 h, read-out: GI
OVCAR-4 = test: Growth inhibition of human OVCAR4 cells at 10 uM after 48 hrs by sulforhodamine B assay; type: functional
K562 = test: Growth inhibition of human K562 cells at 10 uM after 48 hrs by sulforhodamine B assay; type: functional
SK-MEL-28 = test: Growth inhibition of human SK-MEL-28 cells at 10 uM after 48 hrs by sulforhodamine B assay; type: functional, cell-based
U-251 = test: Growth inhibition of human U251 cells at 10 uM after 48 hrs by sulforhodamine B assay; type: functional; settings: U-251, 48 h, read-out: GI
CAKI-1 = test: Growth inhibition of human CAKI-1 cells at 10 uM after 48 hrs by sulforhodamine B assay; type: functional; settings: CAKI-1, 48 h, read-out: GI
SN12C = test: Growth inhibition of human SN12C cells at 10 uM after 48 hrs by sulforhodamine B assay; type: functional
COLO 205 = test: Growth inhibition of human COLO205 cells at 10 uM after 48 hrs by sulforhodamine B assay; type: functional; settings: COLO 205, 48 h, read-out: GI
OVCAR-8 = test: Growth inhibition of human OVCAR8 cells at 10 uM after 48 hrs by sulforhodamine B assay; type: functional
OVCAR-3 = test: Growth inhibition of human OVCAR3 cells at 10 uM after 48 hrs by sulforhodamine B assay; type: functional
786-0 = test: Growth inhibition of human 786-0 cells at 10 uM after 48 hrs by sulforhodamine B assay; type: functional
MCF7 = test: Growth inhibition of human MCF7 cells at 10 uM after 48 hrs by sulforhodamine B assay; type: functional
SK-MEL-5 = test: Growth inhibition of human SK-MEL-5 cells at 10 uM after 48 hrs by sulforhodamine B assay; type: functional; settings: SK-MEL-5, 48 h, read-out: GI
MDA-MB-435 = test: Growth inhibition of human MDA-MB-435 cells at 10 uM after 48 hrs by sulforhodamine B assay; type: functional
HL-60(TB) = test: Growth inhibition of human HL-60(TB) cells at 10 uM after 48 hrs by sulforhodamine B assay; type: functional
HOP-62 = test: Growth inhibition of human HOP62 cells at 10 uM after 48 hrs by sulforhodamine B assay; type: functional
HT-29 = test: Growth inhibition of human HT-29 cells at 10 uM after 48 hrs by sulforhodamine B assay; type: functional; settings: HT-29, 48 h, read-out: GI
NCI-H460 = test: Growth inhibition of human NCI-H460 cells at 10 uM after 48 hrs by sulforhodamine B assay; type: functional
M14 = test: Growth inhibition of human M14 cells at 10 uM after 48 hrs by sulforhodamine B assay; type: functional
Carbonic anhydrase 9 = Carbonic anhydrase 9 (Homo sapiens, UniProt Q16790); test: Inhibition of human carbonic anhydrase 9 after 15 mins by stopped flow CO2 hydration assay
[1] = Growth inhibition of human EKVX cells at 10 uM after 48 hrs by sulforhodamine B assay; type: functional; settings: read-out: GI
HCT-116 = test: Growth inhibition of human HCT116 cells at 10 uM after 48 hrs by sulforhodamine B assay; type: functional
SF-268 = test: Growth inhibition of human SF268 cells at 10 uM after 48 hrs by sulforhodamine B assay; type: functional
SK-MEL-2 = test: Growth inhibition of human SK-MEL-2 cells at 10 uM after 48 hrs by sulforhodamine B assay; type: functional
NCI-H226 = test: Growth inhibition of human NCI-H226 cells at 10 uM after 48 hrs by sulforhodamine B assay; type: functional
SW-620 = test: Growth inhibition of human SW620 cells at 10 uM after 48 hrs by sulforhodamine B assay; type: functional
UACC-62 = test: Growth inhibition of human UACC62 cells at 10 uM after 48 hrs by sulforhodamine B assay; type: functional

CCCCc1c(C)nn(-c2ccncc2S(N)(=O)=O)c1C
16%: inhibition of growth at 10 µM (SK-MEL-5)
27%: inhibition of growth at 10 µM (RPMI-8226)
6%: inhibition of growth at 10 µM [1]
2%: inhibition of growth at 10 µM (LOX IMVI) | inhibition of growth at 10 µM (SK-OV-3)
inactive: growth inhibition (GI) (NCI-H23) | growth inhibition (GI) (ACHN) | growth inhibition (GI) (Hs-578T) | growth inhibition (GI) (BT-549) | growth inhibition (GI) (UACC-257) | growth inhibition (GI) (HCC 2998) | growth inhibition (GI) (NCI/ADR-RES) | growth inhibition (GI) (SNB-75) | growth inhibition (GI) (SR) | growth inhibition (GI) (DU-145) | growth inhibition (GI) (SNB-19) | growth inhibition (GI) (A498) | growth inhibition (GI) (HCT-15) | growth inhibition (GI) (KM12) | growth inhibition (GI) (NCI-H522) | growth inhibition (GI) (MDA-MB-231) | growth inhibition (GI) (OVCAR-4) | growth inhibition (GI) (K562) | growth inhibition (GI) (SK-MEL-28) | growth inhibition (GI) (SN12C) | growth inhibition (GI) (OVCAR-8) | growth inhibition (GI) (OVCAR-3) | growth inhibition (GI) (786-0) | growth inhibition (GI) (MCF7) | growth inhibition (GI) (MDA-MB-435) | growth inhibition (GI) (HL-60(TB)) | growth inhibition (GI) (HOP-62) | growth inhibition (GI) (NCI-H460) | growth inhibition (GI) (M14) | growth inhibition (GI) (HCT-116) | growth inhibition (GI) (SF-268) | growth inhibition (GI) (SK-MEL-2) | growth inhibition (GI) (NCI-H226) | growth inhibition (GI) (SW-620) | growth inhibition (GI) (UACC-62)
5%: inhibition of growth at 10 µM (CAKI-1)
23%: inhibition of growth at 10 µM (UO-31)
17%: inhibition of growth at 10 µM (A549) | inhibition of growth at 10 µM (MOLT-4)
15%: inhibition of growth at 10 µM (HT-29)
13%: inhibition of growth at 10 µM (Malme-3M)
11%: inhibition of growth at 10 µM (T47D)
9%: inhibition of growth at 10 µM (TK-10)
1%: inhibition of growth at 10 µM (COLO 205)
8%: inhibition of growth at 10 µM (PC-3) | inhibition of growth at 10 µM (SF-295) | inhibition of growth at 10 µM (CCRF-CEM) | inhibition of growth at 10 µM (OVCAR-5) | inhibition of growth at 10 µM (U-251)
48.6 nM: Ki (Carbonic anhydrase 9)
7%: inhibition of growth at 10 µM (NCI-H322M)
3%: inhibition of growth at 10 µM (SF-539) | inhibition of growth at 10 µM (IGROV-1)
